Measured values published in patent publication US20190015400A1, “Antifungal Compositions” (priority 2017, published 2019).
Entries after “also recorded” stand apart in the source; their conditions may differ.

How the values were obtained:
[1] = system: C. albicans ATCC 64124 (strain F); experiment: MIC and checkerboard assay, azoles + compounds 1-5; assay type: cell-based, Candida albicans; conditions: for MIC in combination: MIC of the labelled drug; for fold reduction in MIC (combination vs alone): reduction for the labelled drug; for MICalone: drug alone
Method: (§1) These compounds were serially diluted (two-fold dilutions) horizontally on the plate in 100 μL of RPMI medium. A diluted yeast culture (25 μL of a fungal stock with OD600 of 0.125 in 10 mL of RPMI medium, which achieves a final inoculum size of around 1-5×10^3 CFU/mL) was plated across the plate (100 μL per well), making a final volume of 200 μL total per well.
(§2) The appropriate range of concentrations for each compound was determined based on their corresponding MIC values against each fungal strain. The inoculum size for yeast and filamentous fungi were the same as in the MIC experiments described in section 2.2. The 96-well plates were incubated at 35° C. for 48 h for yeasts and 72 h for the Aspergillus strain before visual inspection for growth. […] The combinational effect of the two tested compounds were considered synergistic (abbreviated SYN) if FICI<0.5, additive (abbreviated ADD) if 0.5<FICI<4, and antagonistic if FICI>4 (TABLES 2-4).

[2] = system: C. albicans ATCC 64124 (strain F) biofilm; experiment: Biofilm disruption assay (XTT, SMIC99), azoles + compound 2; assay type: cell-based, Candida albicans; conditions: for FICI / Interp.: biofilm
Method: In order to investigate the synergistic effect of azoles and our compounds on inhibiting biofilm formation of C. albicans ATCC 64124 (strain F), we performed a biofilm disruption assay in a checkerboard setup and used XTT [2,3-bis(2-methoxy-4-nitro-5-sulfophenyl)-2H-tetrazolium-5-carboxanilide] reduction to examine the metabolic activity of the biofilm. Briefly, C. albicans ATCC 64124 (strain F) was grown overnight in YEPD broth at 35° C. The culture was then diluted to an OD600 of 0.12 (equivalent to 1×10^6 CFU/mL) and 100 μL was placed into each well of a 96-well plate. The cells were incubated at 37° C. for 24 h for growth. The following day, the spent medium containing planktonic cells was aspirated and each wells were carefully washed three times with sterile phosphate buffer saline (PBS). […] The negative control (medium only) and the positive control (biofilm plus medium) wells were also included in the same 96-well plate. The plates were then incubated at 37° C. statically for additional 24 h and then washed with sterile PBS. 100 μL of a XTT (0.5 mg/mL)/menadione (1 μM) solution was added to each well, covered with aluminum foil, and incubated for 2 h at 37° C. Then, 80 μL of the colored supernatant from each well was transferred to a new 96-well plate, and the absorption was read at OD490. The percent metabolic activity of the formed biofilm at various drug concentration combinations was calculated by dividing the metabolic activity of biofilm formed for that well by that of the biofilm formed in the growth control well (in the absence of any drug). For these experiments, the sessile MIC (SMIC99) was determined, which is defined as the drug concentration required to inhibit the metabolic activity of biofilm by 99% compared to the growth control. The assay for each combination was performed in duplicates.

J774A.1 cells = experiment: Mammalian cytotoxicity assay, azoles and compound 2
Source text: (§3) David K. Orren (University of Kentucky, Lexington, Ky.) and Prof. David J. Feola (University of Kentucky, Lexington, Ky.), respectively.

BEAS-2B cells = experiment: as above; assay type: cell-based, human
Source text: as §3

HEK-293 cells = experiment: as above; assay type: cell-based, human
Source text: as §3

[3] = system: C. albicans ATCC 10231 (strain B); experiment: MIC and checkerboard assay, azoles + compounds 1-5; assay type: cell-based, Candida albicans
Method: as §1, §2

[4] = system: Aspergillus terreus ATCC MYA-3633 (strain I); experiment: MIC and checkerboard assay, azoles + compounds 1-5; assay type: cell-based; conditions: in combination with POS
Method: as §1, §2

[5] = system: C. glabrata ATCC 2001 (strain H); experiment: MIC and checkerboard assay, azoles + compounds 1-5; assay type: cell-based, Candida glabrata
Method: as §1, §2

[6] = system: C. albicans ATCC 10231 (strain B) biofilm; experiment: Biofilm disruption assay (XTT, SMIC90), POS and EBA; assay type: cell-based, Candida albicans; conditions: drug alone
Method: (§4) Biofilm disruption assays. […] Biofilm assays were performed in 96-well plates using XTT [2,3-bis(2-methoxy-4-nitro-5-sulfophenyl)-2H-tetrazolium-5-carboxanilide] to measure the viability of the biofilm as previously described. An overnight culture of yeast was grown at 35° C. in YEPD medium with shaking at 200 rpm. The overnight culture was diluted in RPMI 1640 medium to an OD600 between 0.12 and 0.15 to make a working stock. Working stock was transferred to the 96-well plate in 100 μL aliquots, leaving one column empty for the sterile control. The plates were incubated at 37° C. for 24 h to allow formation of the biofilm. The medium and planktonic cells from the plate were then aspirated. PBS was then used to wash any remaining planktonic cells off of the biofilm wells. 100 μL of PBS was aliquoted into wells and then removed. The wells were washed 3 times with PBS. […] Plates were incubated at 37° C. for 24 h. Finally, the plates were washed 3 times with PBS before adding 100 μL of XTT dye. The XTT was prepared by dissolving XTT at 0.5 mg/mL concentration in sterile PBS. Before adding to a plate, 1 μL of 10 mM menadione in acetone was added to 10 mL of the 0.5 mg/mL solution of XTT. After addition of XTT (containing menadione), the plates were incubated at 3 h at 37° C. in the dark. 80 μL of liquid from each well was transferred to a new plate. Plates were then read with a SpectraMax M5 plate reader (Molecular Devices, Sunnyvale, Calif., USA) for absorbance at 450 nm. For these experiments, we determined the sessile MIC (SMIC90), which is defined as the drug concentration required to inhibit the metabolic activity of biofilm by 90% compared to the growth control. The SMIC90 values were used to calculate the FICI as described above (TABLE 10). The plates used to determine the SMIC90 are provided in FIGS. 91A-H. Each assay was performed in duplicate.

[7] = system: C. glabrata ATCC 2001 (strain H) biofilm; experiment: as above; assay type: cell-based, Candida glabrata; conditions: drug alone
Method: as §4

[8] = system: C. albicans ATCC 90819 (strain G); experiment: MIC and checkerboard assay, azoles + compounds 1-5; assay type: cell-based, Candida albicans
Method: as §1, §2

[9] = system: C. albicans ATCC 64124 (strain F); experiment: Time-kill assay, azoles + compound 2; assay type: cell-based, Candida albicans
Method: Each sample was incubated at 35° C. with shaking at 200 rpm. At various time points (0, 3, 6, 9, 12, and 24 h), 100 μL aliquots were taken from each sample and serially diluted (10-fold dilutions) in sterile ddH2O. 100 μL of each dilution was spread onto PDA plates and incubated at 35° C. for 48 h before colony counts were determined (FIGS. 2A-B). At the end of the 24-h experiment, 50 μL of 1 mM sterile resazurin solution was added to each sample for visual comparison of growth. Each experiment was performed in duplicate.

[10] = azole 16 μg/mL + 8 μg/mL compound 2
[11] = azole at any concentration + 32 μg/mL compound 2
[12] = drug alone, up to highest concentration tested (azoles 16 μg/mL, compound 2 64 μg/mL)
[13] = combination with POS at 8×MICcombo
[14] = combination with VOR at 8×MICcombo

## C[C@@H](c1ncncc1F)[C@](O)(Cn1cncn1)c1ccc(F)cc1F [VOR, voriconazole]
[1]; combination compound 5 + VOR
  MIC in combination: 2 µg/mL
[2]; azole alone, sessile cells
  SMIC alone (μg/mL) Azole: >32 µg/mL
[2]; azole in combination with compound 2
  SMIC combo (μg/mL) Azole: 0.5 µg/mL
J774A.1 cells; [10]
  cytotoxicity: no toxicity
J774A.1 cells; drug alone, any concentration tested (up to 16 μg/mL)
  cytotoxicity: No cytotoxic effect
BEAS-2B cells; [10]
  cytotoxicity: no toxicity
BEAS-2B cells; [11]
  cytotoxicity: no toxicity
BEAS-2B cells; [12]
  cytotoxicity: No cytotoxic effect
HEK-293 cells; [10]
  cytotoxicity: no toxicity
HEK-293 cells; [11]
  cytotoxicity: no toxicity
HEK-293 cells; [12]
  cytotoxicity: No cytotoxic effect

## O=C(CCCN1CCC(O)(c2ccc(Br)cc2)CC1)c1ccc(Cl)cc1 [Compound 3]
[1]; in combination with KTC
  combinational effect (FICI interpretation): partial synergy
[1]; in combination with POS
  combinational effect (FICI interpretation): synergy; also recorded: synergistic interactions
[1]; in combination with VOR
  combinational effect (FICI interpretation): partial synergy; also recorded: synergistic interactions
[3]; in combination with KTC
  combinational effect (FICI interpretation): partial synergy
[3]; in combination with POS
  combinational effect (FICI interpretation): partial synergy
[3]; in combination with VOR
  combinational effect (FICI interpretation): partial synergy

## COc1ccc(C(=O)CCCN2CCC(O)(c3ccc(Br)cc3)CC2)cc1 [Compound 5]
[4]
  combinational effect (FICI interpretation): synergistic
[5]; in combination with POS
  combinational effect (FICI interpretation): partial synergy
[1]; combination compound 5 + VOR
  fold reduction in MIC (combination vs alone): 16 fold
[1]
  MICalone: > 128 µg/mL
[1]; in combination with POS
  FICI: 0.13
  combinational effect (FICI interpretation): synergistic interactions
[1]; in combination with VOR
  combinational effect (FICI interpretation): strong additive effect
[3]; in combination with VOR
  combinational effect (FICI interpretation): Partial synergy

## O=C(CCCN1CCC(O)(c2ccc(Br)cc2)CC1)c1ccccc1 [Compound 1]
[5]; in combination with POS
  combinational effect (FICI interpretation): partial synergy
[5]; in combination with VOR
  combinational effect (FICI interpretation): strong additive effect
[1]; in combination with POS
  combinational effect (FICI interpretation): synergy; also recorded: synergistic interactions
[1]; in combination with VOR
  combinational effect (FICI interpretation): partial synergy
[3]; in combination with POS
  combinational effect (FICI interpretation): partial synergy
[3]; in combination with VOR
  combinational effect (FICI interpretation): partial synergy

## O=C(CCCN1CCC(O)(c2ccc(Br)cc2)CC1)c1ccc(Br)cc1 [Compound 4]
[5]; in combination with POS
  combinational effect (FICI interpretation): synergistic; also recorded: strong synergy
[1]; in combination with KTC
  combinational effect (FICI interpretation): partial synergy
[1]; in combination with POS
  combinational effect (FICI interpretation): synergistic interactions
[1]; in combination with VOR
  combinational effect (FICI interpretation): Partial synergy
[3]; in combination with KTC
  combinational effect (FICI interpretation): partial synergy

## CCC(C)n1ncn(-c2ccc(N3CCN(c4ccc(OCC5COC(Cn6cncn6)(c6ccc(Cl)cc6Cl)O5)cc4)CC3)cc2)c1=O (centres unmarked) [ITC, itraconazole]
[1]; combination compound 2 + ITC
  MIC in combination: 2 µg/mL
  fold reduction in MIC (combination vs alone): 16 fold

## C[C@@H]1[C@H](O)[C@@H](C)/C=C/C=C/C=C/C=C/C=C/C=C/C=C/[C@H](O[C@@H]2O[C@H](C)[C@@H](O)[C@H](N)[C@@H]2O)C[C@@H]2O[C@](O)(C[C@@H](O)C[C@@H](O)[C@H](O)CC[C@@H](O)C[C@@H](O)CC(=O)O[C@H]1C)C[C@H](O)[C@H]2C(=O)O [AMB, amphotericin B]
[6]
  SMIC90: >32 µg/mL
[7]
  SMIC90: 4 µg/mL

## O=C(CCCN1CCC(O)(c2ccc(Br)cc2)CC1)c1ccc(F)cc1 [Compound 2, bromperidol]
[4]
  combinational effect (FICI interpretation): synergy; also recorded: synergistic
[5]; in combination with POS
  combinational effect (FICI interpretation): partial synergy
[5]; in combination with VOR
  combinational effect (FICI interpretation): partial synergy
[1]; combination compound 2 + ITC
  MIC in combination: 64 µg/mL
[1]; combination compound 2 + POS
  MIC in combination: 4 µg/mL
[1]
  MICalone: 128 µg/mL
[1]; in combination with ITC
  FICI: 0.56
  combinational effect (FICI interpretation): partial synergy
[1]; in combination with KTC
  combinational effect (FICI interpretation): partial synergy
[1]; in combination with POS
  FICI: 0.16
  combinational effect (FICI interpretation): synergy
[1]; in combination with VOR
  combinational effect (FICI interpretation): synergy
[8]; in combination with POS
  combinational effect (FICI interpretation): synergy
[8]; in combination with VOR
  combinational effect (FICI interpretation): synergy
[3]; in combination with ITC
  combinational effect (FICI interpretation): partial synergy
[3]; in combination with KTC
  combinational effect (FICI interpretation): partial synergy
[3]; in combination with POS
  combinational effect (FICI interpretation): partial synergy
[3]; in combination with VOR
  combinational effect (FICI interpretation): partial synergy
[2]; in combination with POS
  FICI: 1.02
  Interp.: ADD*
[2]; in combination with VOR
  FICI: 1.02
  Interp.: ADD*
[2]; compound alone, sessile cells
  SMIC alone (μg/mL) Cpd: >128 µg/mL
[2]; compound in combination with POS
  SMIC combo (μg/mL) Cpd: 128 µg/mL
[2]; compound in combination with VOR
  SMIC combo (μg/mL) Cpd: 128 µg/mL
J774A.1 cells; drug alone at 16 μg/mL
  cell survival: 72±14%
J774A.1 cells; drug alone at 32 μg/mL
  cell survival: 50±7%
J774A.1 cells; drug alone at 64 μg/mL
  cell survival: 30±4%
J774A.1 cells; drug alone, stated for all three cell lines (BEAS-2B, HEK-293, J774A.1), J774A.1 limiting
  highest concentration at which no cytotoxicity was observed: 8 µg/mL
[9]; [13]
  CFU/mL throughout 24 h: around 1×10^5 CFU/mL
  time-kill effect: fungistatic effect
[9]; [14]
  reduction in CFU/mL over 24 h: about 1 log10 unit
  time-kill effect: fungistatic effect
[9]; drug alone at the concentration of the 8×MICcombo sample, 24 h
  increase in CFU/mL: about 1 order of magnitude
